Measurements reported in patent publication US10857105B2, “Compounds and compositions for intracellular delivery of therapeutic agents” (ModernaTX, Inc., priority 2017, dated 2020).

What was measured:
[1] = Clinical chemistry and hematology in rat 48 h after intravenous 2 mpk dose; assay type: in vivo; conditions: 48 h post dose
Protocol: Sample formulations of nanoparticle compositions including different lipids were administered intravenously to rat at a dose of 2 mpk. The expression of various clinical markers was evaluated at 48 h post dose and compared to that induced by administration of MC3 formulations or phosphate buffered saline (PBS).

[2] = Chemical stability of lipids in ethanol at room temperature and 37° C. (lipid purity); assay type: physicochemical
In short: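 Lipid chemical stability was assessed as lipid purity after storage in ethanol at room temperature and at 37° C.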

luciferase (Luc) mRNA [3] = assay: Luciferase expression after intramuscular administration to mice; assay type: in vivo; conditions: for Novel lipid/MC3 expression ratio, i.m. Luc: 6 hr. time point, relative to MC3 formulation
In short: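 CD-1 mice received lipid nanoparticle formulations of modified luciferase mRNA intramuscularly at 0.01 mpk. Bioluminescence total flux was measured, including at 6 h, and AUC was expressed relative to MC3 formulations. Immunogenicity was assessed in parallel.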

luciferase (Luc) mRNA [4] = assay: Luciferase expression (whole body bioluminescence) after intravenous administration to mice; assay type: in vivo; conditions: for Fold increase in Luc expression over MC3 upon intravenous administration: higher doses than the intramuscular data; for Fold increase in Luc expression over MC3 upon intravenous administration / Novel lipid/MC3 expression ratio, i.v. / Total Flux 3 hours / Total Flux 6 hours / Total Flux 24 hours: intravenous; for Novel lipid/MC3 expression ratio, i.v.: luciferase, 6 hr. time point, relative to MC3 formulation; for Total Flux 3 hours / Total Flux 6 hours / Total Flux 24 hours: mice (n=6), 0.5 mg/kg
In short: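 Mice (n=6) received lipid nanoparticle formulations carrying luciferase mRNA intravenously at 0.5 mg/kg. Whole-body bioluminescence was measured at 3, 6 and 24 h. Total flux was taken as area under the curve and expressed relative to a standard MC3 formulation.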

[5] = Pharmacokinetic study of lipids in plasma, liver and spleen (compound 18, compound 25, MC3); conditions: for clearance from liver tissue: rat pharmacokinetic study, 24-48 hours; for half-life / AUC / Cmax / Tmax: male, Sprague-Dawley, rat, iv; for HL: table titled mouse
Protocol: LNP administration to animals: mRNA-LNPs diluted in phosphate buffered saline (PBS) were injected intravenously (5 mL/kg) into female CD-1 female mice (18 to 22 g in body weight) and male Sprague-Dawley rats (225-250 g in body weight) via the tail vein using 29 g, 3/10 cc insulin syringes (mice) or 27 g, 1 mL syringes (rats) after gentle warming of the animals using a heat lamp for 3 minutes.
Protein was precipitated and analyzed against calibration standards prepared in matching blank. Chromatographic separation and quantification was accomplished with a LC-MS/MS System. Samples were injected and separated via HPLC A triple-quadrupole MS/MS system operated in positive ion mode was used for signal detection.
PK analysis of the individual plasma and tissue concentration data was performed using anon-validated program (Phoenix WinNonlin®, Version 7.0 (Pharsight Corp., Mountain View, Calif.)). Kinetic parameters were estimated using a noncompartmental model (Plasma (200-202), Uniform weighting, extravascular dosing with sparse sampling). The AUG was calculated using the linear trapezoidal rule. All derived parameters are reported to 3 significant figures with the exception of time to peak concentration (Tmax) and halflife (HL), which are reported to one decimal place. No further statistical analyses were performed on the plasma concentration data or derived pharacokinetic parameters.

hEPO mRNA = assay: hEPO expression after intramuscular administration to mice; assay type: in vivo; conditions: for Novel lipid/MC3 ratio, i.m. hEPO: Table 3G, intramuscular, 6 hr. timepoint, relative to MC3
Protocol: The numbers 1-11 in this figure correspond to MC3, Compounds 18, 25, 30, 108-112, 60, and 122 respectively.
The expression of hEPO and cytokine induction in mice intravenously administered a nanoparticle composition at a dose of 0.5 mpk were measured at 3, 6, and 24 hours. […] The expression of hEPO in mice intramuscularly administered a nanoparticle composition from Table 1B at a dose of 0.01 mpk were measured at 3, 6, and 24 hours. […] (see

[6] = luciferase, intramuscular administration (Table 3H)
[7] = intravenous administration (Table 3D)

## CCCCCCCCCN(CCO)CCCCCCCC(=O)OC(CCCCCCCC)CCCCCCCC [Compound 3, Heptadecan-9-yl 8-((2-hydroxyethyl)(nonyl)amino)octanoate]
[1]
  Concentration, Alanine aminotransferase: 53.5
  Concentration, Aspartate aminotransferase: 87.5
  Concentration, Lymphocytes: 12051
  Concentration, Monocytes: 2103
  Concentration, Neutrophils: 3388.5

## CCCCCCCCCOC(=O)CCCCCCCN(CCO)CCCCCCCC(=O)OC(CCCCCCCC)CCCCCCCC [Compound 18, Heptadecan-9-yl 8-((2-hydroxyethyl)(8-(nonyloxy)-8-oxooctyl)amino)octanoate]
[2]
  Lipid Purity, t = 96 h, 25° C.: 94.71%
  Lipid Purity, t = 96 h, 37° C.: 95.01%
  Lipid Purity, t = 0: 94.37%
Luciferase (Luc) mRNA [3]; intramuscular, luciferase
  Novel lipid/MC3 expression ratio, i.m. Luc: 2.01
Luciferase (Luc) mRNA [4]
  Fold increase in Luc expression over MC3 upon intravenous administration: highest fold increase
[5]; liver
  clearance from liver tissue: efficiently cleared from liver tissue by 24 hours

## CCCCCC/C=C\COC(=O)CCCCCCCN(CCO)CCCCCCCC(=O)OC(CCCCCCCC)CCCCCCCC [Compound 24, Heptadecan-9-yl (Z)-8-((2-hydroxyethyl) (8-(non-2-en-1-yloxy)-8-oxooctyl)amino)octanoate]
Luciferase (Luc) mRNA [3]; Table 3G, intramuscular, luciferase, 6 hr. timepoint, relative to MC3
  Novel lipid/MC3 ratio, i.m. Luc: 1.10
Luciferase (Luc) mRNA [3]; intramuscular, luciferase
  Novel lipid/MC3 expression ratio, i.m. Luc: 1.10
[1]
  Concentration, Alanine aminotransferase: 51.5
  Concentration, Aspartate aminotransferase: 90
  Concentration, Lymphocytes: 14100
  Concentration, Monocytes: 1834
  Concentration, Neutrophils: 1790.5

## CCCCCCCCCCCOC(=O)CCCCCN(CCO)CCCCCCCC(=O)OC(CCCCCCCC)CCCCCCCC [Compound 25, Heptadecan-9-yl 8-((2-hydroxyethyl)(6-oxo-6-(undecyloxy)hexyl)amino)octanoate]
[2]
  Lipid Purity, t = 96 h, 25° C.: 96.23%
  Lipid Purity, t = 96 h, 37° C.: 96.13%
  Lipid Purity, t = 0: 95.58%
hEPO mRNA
  Novel lipid/MC3 ratio, i.m. hEPO: 7.1
[1]
  Concentration, Alanine aminotransferase: 52
  Concentration, Aspartate aminotransferase: 124.5
  Concentration, Lymphocytes: 15924
  Concentration, Monocytes: 2122
  Concentration, Neutrophils: 1998
[5]; liver
  half-life: 6.9 h
  clearance from liver tissue: efficiently cleared from liver tissue by 24 hours

## CCCCCCCCCOC(=O)CCCN(CCO)CCCCCCCC(=O)OC(CCCCCCCC)CCCCCCCC [Compound 26, Heptadecan-9-yl 8-((2-hydroxyethyl)(4-(nonyloxy)-4-oxobutyl)amino) octanoate]
[2]
  Lipid Purity, t = 96 h, 25° C.: 97.38%
  Lipid Purity, t = 96 h, 37° C.: 95.72%
  Lipid Purity, t = 0: 98.64%
Luciferase (Luc) mRNA [4]
  Fold increase in Luc expression over MC3 upon intravenous administration: highest fold increase

## CCCCCCCCCOC(=O)CCCCCCCN(CCO)CCCCCCCOC(=O)C(CCCCCCCC)CCCCCCCC [Compound 30, 7-((2-Hydroxyethyl)(8-(nonyloxy)-8-oxooctyl)amino)heptyl 2-octyldecanoate]
hEPO mRNA
  Novel lipid/MC3 ratio, i.m. hEPO: 9.2
[1]
  Concentration, Alanine aminotransferase: 56
  Concentration, Aspartate aminotransferase: 95
  Concentration, Lymphocytes: 10408.5
  Concentration, Monocytes: 877
  Concentration, Neutrophils: 3195

## CCCCCCCCC(C)OC(=O)CCCCCCCN(CCO)CCCCCCCC(=O)OC(CCCCCCCC)CCCCCCCC (stereo not shown) [Compound 48, decan-2-yl 8-((8-(heptadecan-9-yloxy)-8-oxooctyl)(2-hydroxyethyl)amino)octanoate]
Luciferase (Luc) mRNA [3]; intramuscular, luciferase
  Novel lipid/MC3 expression ratio, i.m. Luc: 0.31
Luciferase (Luc) mRNA [4]
  Novel lipid/MC3 expression ratio, i.v.: 10.0

## CCCCCC=CCC=CCCCCCCCCC(CCCCCCCCC=CCC=CCCCCC)OC(=O)CCCN(C)C (stereo not shown) [MC3, heptatriaconta-6,9,28,31-tetraen-19-yl 4-(dimethylamino)butanoate, reference compound]
Luciferase (Luc) mRNA [3]; Luc mRNA, intramuscular, 0.01 mpk, 6 hours
  Total flux 6 hours after intramuscular administration, 0.01 mpk Dose: 3.23E+07 p/s
Luciferase (Luc) mRNA [3]; [6]
  AUC: 5.88E+08 p/s*h
  Lipid/MC3 AUC: 1
hEPO mRNA; mice, intramuscular 0.01 mpk, 6 hr time point
  Fold increase in hEPO concentration relative to MC3: 1
Luciferase (Luc) mRNA [4]; 0.5 mpk dose to mouse, 6 hours after administration
  Lipid/MC3 Luc expression: 1
Luciferase (Luc) mRNA [4]; 6 h, ffluc
  Average total flux (6 h, ffluc): 6.59 × 10^9
  Fold increase in average total flux relative to MC3: 1
Luciferase (Luc) mRNA [4]; i.v. administration (Table 3C)
  AUC: 8.24E+10 h*p/s
  Fold increase AUC Lipid/MC3: 1
Luciferase (Luc) mRNA [4]; i.v. administration, 6 h
  Fold increase in total body Luc Flux relative to MC3 at 6 h: 1.00
Luciferase (Luc) mRNA [4]; i.v. administration, 6 h (Table 3C)
  6 h Lipid/MC3 Avg. Luc Expression: 1
Luciferase (Luc) mRNA [4]; [7]
  AUC: 1.909E+011 p/s*h
  Lipid/MC3 AUC: 1
Luciferase (Luc) mRNA [4]
  Total Flux 3 hours: 1.58E+10
  Total Flux 6 hours: 2.12E+10
  Total Flux 24 hours: 7.19E+08
[1]
  Concentration, Alanine aminotransferase: 339
  Concentration, Aspartate aminotransferase: 325
  Concentration, Lymphocytes: 19976
  Concentration, Monocytes: 1429
  Concentration, Neutrophils: 4962.5
[5]; Liver, * = 2 terminal datapoints estimation
  HL: 52.5* hr
[5]; Plasma
  HL: 8.4 h
[5]; Spleen, * = 2 terminal datapoints estimation
  HL: 33.3* hr
[5]; liver
  AUC: 1410 µg·h/mL
  Cmax: 33000 ng/mL
  Tmax: 24 h
  half-life: > 50 h
  clearance from liver tissue: still present at high concentrations at 48 hours
[5]; plasma
  AUC: 69.1 µg·h/mL
  Cmax: 28900 ng/mL
  Tmax: 0.5 h
[5]; spleen
  AUC: 787 µg·h/mL
  Cmax: 21200 ng/mL
  Tmax: 8 h

## Nonyl 8-((6-(heptadecan-9-yloxy)-6-oxohexyl)(2-hydroxyethyl)amino) octanoate [Compound 27]
Luciferase (Luc) mRNA [3]; intramuscular, luciferase
  Novel lipid/MC3 expression ratio, i.m. Luc: 3.94
Luciferase (Luc) mRNA [4]; i.v. administration, 6 h
  Fold increase in total body Luc Flux relative to MC3 at 6 h: 0.31
Luciferase (Luc) mRNA [4]
  Novel lipid/MC3 expression ratio, i.v.: 0.31
  Total Flux 3 hours: 1.64E+10
  Total Flux 6 hours: 1.03E+10
  Total Flux 24 hours: 1.94E+09
